{
  "source": "paper PMC9356065",
  "about": "“Novel psoralen derivatives as anti-breast cancer agents and their light-activated cytotoxicity against HER2 positive breast cancer cells” (Scientific Reports, 2022)",
  "key": {"T47-D": {"tested_on": "T47-D", "experiment": "MTT cytotoxicity, 48 h, without UVA", "type": "cell-based, human", "conditions": "for IC50: hormone-dependent breast cancer, read-out: Cytotoxic activity T47-D IC50; for Selectivity Index (SI): SI = IC50 for MRC-5/IC50 for T47-D", "description": "(§1) Additionally, the cytotoxicity towards normal cells, human embryonal lung fibroblast cell MRC-5 was also assessed.\n(§2) MDA-MB-231 (triple-negative breast cancer) was obtained from M.D. Anderson Cancer Center, Houston, TX, USA). T47-D (hormone-dependent breast carcinoma), SK-BR-3 (human HER2+ breast cancer), and MRC-5 (normal embryonic lung fibroblast) were obtained from the American Type Culture Collection (ATCC, Manassas, VA, USA).\n(§3) The cytotoxic effect of tested compounds was evaluated in two breast cancer cell lines, MDA-MB-231 and T47-D. Number of survival cells after exposure to tested compounds for 48 h was determined by MTT assay, as previously described."}, "SK-BR-3 [1]": {"tested_on": "SK-BR-3", "experiment": "Dark and light-activated (UVA) cytotoxicity, MTT", "type": "cell-based", "conditions": "Homo sapiens, dark, HER2+ breast cancer"}, "[2]": {"tested_on": "circulating estrogen levels", "set-up": "method as in PMID 10098905", "conditions": "female rats, dose-dependent; cited from earlier work"}, "MDA-MB-231 [3]": {"tested_on": "MDA-MB-231", "experiment": "Dark and light-activated (UVA) cytotoxicity, MTT", "type": "cell-based", "conditions": "Homo sapiens, MDA-MB-231, light or radiation study; irradiation with UVA (2.0 J cm^−2); HER2− breast cancer", "description": "(§4) The selected compounds were screened for their IC50 values against both HER2+ breast cancer (SK-BR-3), and HER2− breast cancer (MDA-MB-231) in both dark and light-activated conditions (Table 2). Additionally, a negative control study was also performed with SK-BR-3 and MDA-MB-231 cells in the absence of tested compound under UVA irradiation (See Fig S7., Supporting Information).\n(§5) SK-BR-3 and MDA-MB-231 cells were seeded into 96-well cell culture plates at 5 × 10^3 cells/well and incubated for 24 h at 37 °C under 5% CO2. After that, the cells were treated with 50 μM of psoralen derivatives in DMEM with 10% FBS and the cells were continued incubation for another 4 h. After incubation, the cells were washed with PBS (3 times) and then irradiated by a 365 nm lamp with the light intensity of 2.0 J cm^−2 for 12.5 min before re-incubation for another 72 h. After incubation, the cell was treated with methylthiazolyldiphenyl-tetrazolium bromide (MTT reagent 200 μL, 0.5 mg mL^−1, Sigma-Aldrich) for 2 h. After reagent removal, DMSO was added to dissolve the formazan product and the cell viabilities were determined through UV–Vis absorption of the resulting formazan at wavelength 560 nm using a microplate reader (BMG Labtech/SPECTROstar Nano). The cell morphology images were captured by using a light microscope (Microscope Nikon, inverted digital) at 20X magnification prior to treating with MTT reagent."}, "MDA-MB-231 [4]": {"tested_on": "MDA-MB-231", "experiment": "Dark and light-activated (UVA) cytotoxicity, MTT", "type": "cell-based", "conditions": "Homo sapiens, dark, HER2− breast cancer"}, "SK-BR-3 [5]": {"tested_on": "SK-BR-3", "experiment": "Dark and light-activated (UVA) cytotoxicity, MTT", "type": "cell-based, human", "conditions": "for IC50: Homo sapiens, SK-BR-3, light or radiation study, irradiation with UVA (2.0 J cm^−2), HER2+ breast cancer", "description": "as §4, §5"}, "MDA-MB-231 [6]": {"tested_on": "MDA-MB-231", "experiment": "MTT cytotoxicity, 48 h, without UVA", "type": "cell-based", "conditions": "Homo sapiens, MDA-MB-231, light or radiation study; for IC50: hormone-independent breast cancer, read-out: Cytotoxic activity MDA-MB-231 IC50", "description": "as §2, §3"}, "aromatase (CYP19)": {"target": "T1, aromatase (CYP19) (Homo sapiens, UniProt P11511)", "T1 sequence (P11511 1-503)": "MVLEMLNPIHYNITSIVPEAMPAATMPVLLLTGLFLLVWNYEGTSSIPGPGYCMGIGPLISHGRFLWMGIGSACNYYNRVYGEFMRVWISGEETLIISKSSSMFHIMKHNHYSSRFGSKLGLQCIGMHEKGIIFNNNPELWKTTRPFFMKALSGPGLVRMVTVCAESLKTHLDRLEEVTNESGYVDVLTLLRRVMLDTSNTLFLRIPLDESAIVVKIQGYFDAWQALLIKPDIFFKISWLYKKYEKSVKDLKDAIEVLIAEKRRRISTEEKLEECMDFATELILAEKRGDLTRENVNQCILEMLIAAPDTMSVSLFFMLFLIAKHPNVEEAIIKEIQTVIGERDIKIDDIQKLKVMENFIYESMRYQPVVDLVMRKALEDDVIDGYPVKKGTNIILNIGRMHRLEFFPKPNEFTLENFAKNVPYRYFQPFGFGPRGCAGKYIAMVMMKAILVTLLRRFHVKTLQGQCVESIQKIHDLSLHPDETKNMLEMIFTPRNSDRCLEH", "experiment": "Inhibition of aromatase (AIA)", "type": "biochemical", "conditions": "at 12.5 µM; I = %inhibition lower than 50%; read-out: Aromatase inhibitory activity %Inhibition", "description": "Estrogens are the critical risk factor for breast cancer initiation and progression and the aromatase enzyme involves in the final step conversion of androgens to estrogens[21],[22]. […] In this study, the synthesized psoralen derivatives were also tested for aromatase inhibitory activity (AIA) which is considered to be one of chemopreventive mechanisms for hormone dependent breast cancer.\nInhibition of the aromatase was performed using the method designed by Stresser et al.[39]."}, "[7]": {"tested_on": "differentiated HL-60 cells", "experiment": "Inhibition of TPA-induced superoxide anion radical generation (HL-60 Antioxidant)", "type": "cell-based, human", "conditions": "Homo sapiens, HL-60; screening concentration 100 µM; read-out: HL-60 Antiox. %Inh", "excerpt": "Inhibition of 12-O-tetradecanoylphorbol-13-acetate (TPA)-induced superoxide anion radical generation in differentiated HL-60 cells (HL-60 Antioxidant) TPA-induced superoxide anion radical formation was detected in differentiated HL-60 cells by photometric determination of cytochrome c reduction as previously described by Gerhäuser et al., 2003.ii Superoxide dismutase (SOD;15U) was a positive control. […]"}, "[8]": {"experiment": "Scavenging of diphenyl-picryl-hydrazyl radicals (DPPH)", "conditions": "screening concentration 250 µM", "excerpt": "1. Chemoprevention activity"}, "[9]": {"experiment": "Inhibition of superoxide radical formation by xanthine/xanthine oxidase (XXO)", "type": "biochemical", "conditions": "screening concentration 500 µM", "excerpt": "1. […]"}, "[10]": {"experiment": "MTT cytotoxicity towards normal cells, 48 h", "type": "cell-based", "conditions": "MRC-5 cells (normal embryonic lung fibroblasts), human embryonal lung fibroblast cell, without UVA, read-out: Cytotoxic activity MRC-5 IC50", "description": "as §1, §2, §3"}, "[11]": {"tested_on": "estrogen receptor in MCF-7 breast cancer cells", "set-up": "method as in PMID 23053665", "conditions": "MCF-7 breast cancer cells and tamoxifen-resistant clone; cited from earlier work"}, "[12]": {"tested_on": "ERα activity in MCF-7 cells", "set-up": "method as in PMID 31673107", "conditions": "read-out: IC50 antagonism of ERα activity in MCF-7 cells; cited from earlier work"}, "3T3": {"tested_on": "3T3", "set-up": "method as in PMID 32815004, PMID 20693013", "conditions": "cited from earlier work"}, "SK-BR-3 cells": {"tested_on": "SK-BR-3 cells", "experiment": "Cell morphology by light microscope", "type": "cell-based, human", "conditions": "48 h", "description": "as §5, with “After incubation, the cells were washed with PBS (3 times) and then irradiated by a 365 nm lamp with the light intensity of 2.0 J cm^−2 for 12.5 min before re-incubation for another 72 h.” left out"}, "[13]": {"conditions": "Homo sapiens, T47D, light or radiation study, 48 h, without UVA"}},
  "data": [
    {"smiles": "COc1c2occc2cc2ccc(=O)oc12", "note": "[8-MOP, 8-methoxypsoralen, reference compound]", "values": [
      {"measurement": "inhibition at 50 µg/mL", "setting": "T47-D; Homo sapiens, T47D, light or radiation study, 48 h, without UVA, I = %inhibition lower than 50%, read-out: Cytotoxic activity T47-D %Inhibition", "result": 16, "unit": "%"},
      {"measurement": "IC50", "setting": "SK-BR-3 [1]", "result": "> 100", "unit": "µM"},
      {"measurement": "circulating estrogen levels", "setting": "[2]", "result": "significantly reduced"},
      {"measurement": "IC50", "setting": "MDA-MB-231 [3]", "result": "> 100", "unit": "µM"},
      {"measurement": "IC50", "setting": "MDA-MB-231 [4]", "result": "> 100", "unit": "µM"},
      {"measurement": "dark and light-activated cytotoxicity against SK-BR-3 (%viability screening)", "setting": "SK-BR-3 [5]; 50 µM, absence and presence of UVA (2.0 J cm^−2), Fig. 3", "result": "little to no activity"},
      {"measurement": "IC50", "setting": "SK-BR-3 [5]", "result": "24.7 ± 3.02", "unit": "µM"},
      {"measurement": "inhibition at 50 µg/mL", "setting": "MDA-MB-231 [6]; I = %inhibition lower than 50%, read-out: Cytotoxic activity MDA-MB-231 %Inhibition", "result": 6, "unit": "%"}
    ]},
    {"smiles": "COc1c2occc2c(NC(=O)c2cccc([N+](=O)[O-])c2)c2ccc(=O)oc12", "note": "[3f, N-(9-Methoxy-7-oxo-7H-furo[3,2-g]chromen-4-yl)-3-nitrobenzamide]", "values": [
      {"measurement": "IC50", "setting": "T47-D; [13]", "result": "49.8 ± 0.5", "unit": "µM"},
      {"measurement": "Selectivity Index (SI)", "setting": "T47-D", "result": 1.6},
      {"measurement": "inhibition at 12.5 µM", "setting": "aromatase (CYP19)", "result": 4, "unit": "%"},
      {"measurement": "inhibition at 100 µM", "setting": "[7]", "result": 7, "unit": "%"},
      {"measurement": "DPPH %Inh", "setting": "[8]", "result": 1, "unit": "%"},
      {"measurement": "XXO %Inh", "setting": "[9]", "result": 33, "unit": "%"},
      {"measurement": "IC50", "setting": "MDA-MB-231 [6]", "result": "71 ± 2.34", "unit": "µM"},
      {"measurement": "melting point", "result": "267 to 268", "unit": "°C"},
      {"measurement": "IC50 at 48 h", "setting": "[10]", "result": "77.3 ± 3.52", "unit": "µM"}
    ]},
    {"smiles": "COc1c2ccoc2cc2oc(=O)ccc12", "note": "[bergapten]", "values": [
      {"measurement": "levels of estrogen receptor", "setting": "[11]", "result": "reduced"},
      {"measurement": "circulating estrogen levels", "setting": "[2]", "result": "significantly reduced"},
      {"measurement": "IC50", "setting": "[12]", "result": 1.2, "unit": "µM"}
    ]},
    {"smiles": "CS(=O)(=O)CCNCc1ccc(-c2ccc3ncnc(Nc4ccc(OCc5cccc(F)c5)c(Cl)c4)c3c2)o1", "note": "[Lapatinib, reference compound]", "values": [
      {"measurement": "IC50", "setting": "T47-D; [13]", "result": "9.78 ± 0.46", "unit": "µM"},
      {"measurement": "Selectivity Index (SI)", "setting": "T47-D", "result": 5.0},
      {"measurement": "IC50", "setting": "SK-BR-3 [1]", "result": "25.3 ± 0.99", "unit": "µM"},
      {"measurement": "phototoxic potential (3T3 NRU assay)", "setting": "3T3", "result": "phototoxic potential"},
      {"measurement": "IC50", "setting": "MDA-MB-231 [3]", "result": "8.6 ± 0.82", "unit": "µM"},
      {"measurement": "IC50", "setting": "MDA-MB-231 [4]", "result": "73 ± 2.53", "unit": "µM"},
      {"measurement": "IC50", "setting": "SK-BR-3 [5]", "result": "0.16 ± 0.03", "unit": "µM"},
      {"measurement": "IC50", "setting": "MDA-MB-231 [6]", "result": "53.37 ± 0.31", "unit": "µM"},
      {"measurement": "IC50 at 48 h", "setting": "[10]", "result": "48.8 ± 9.45", "unit": "µM"},
      {"measurement": "morphology of SK-BR-3 cells under light activation", "setting": "SK-BR-3 cells; UVA 2.0 J cm^−2", "result": "morphological changes indicating apoptosis"},
      {"measurement": "morphology of SK-BR-3 cells under dark condition", "setting": "SK-BR-3 cells; dark", "result": "morphological changes indicating apoptosis"}
    ]}
  ]
}
